{"source": "ChEMBL document CHEMBL2401728", "about": "“An unexpected Dimroth rearrangement leading to annelated thieno[3,2-d][1,2,3]triazolo[1,5-a]pyrimidines with potent antitumor activity” (Eur J Med Chem, 2013)", "key": {"[1]": {"experiment": "Cytotoxicity against human CNS cancer cells assessed as cellular growth at 10 uM after 48 hrs by SRB assay relative to control", "format": "functional, Cancer cell lines"}, "[2]": {"experiment": "Cytotoxicity against human colon cancer cells assessed as cellular growth at 10 uM after 48 hrs by SRB assay relative to control", "format": "functional, Cancer cell lines"}, "[3]": {"experiment": "Cytotoxicity against human breast cancer cells assessed as cellular growth at 10 uM after 48 hrs by SRB assay relative to control", "format": "functional, Cancer cell lines"}, "[4]": {"experiment": "Cytotoxicity against human ovarian cancer cells assessed as cellular growth at 10 uM after 48 hrs by SRB assay relative to control", "format": "functional, Cancer cell lines"}, "[5]": {"experiment": "Cytotoxicity against human prostate cancer cells assessed as cellular growth at 10 uM after 48 hrs by SRB assay relative to control", "format": "functional, Cancer cell lines"}, "[6]": {"experiment": "Cytotoxicity against human renal cancer cells assessed as cellular growth at 10 uM after 48 hrs by SRB assay relative to control", "format": "functional, Cancer cell lines"}, "[7]": {"tested_on": "PC-3", "experiment": "Cytotoxicity against human PC3 cells assessed as cellular growth at 100 uM after 48 hrs by SRB assay relative to control", "format": "functional"}, "[8]": {"tested_on": "HT-29", "experiment": "Cytotoxicity against human HT-29 cells assessed as cellular growth at 100 uM after 48 hrs by SRB assay relative to control", "format": "functional"}, "[9]": {"tested_on": "HT-29", "experiment": "Cytotoxicity against human HT-29 cells assessed as cellular growth at 0.1 uM after 48 hrs by SRB assay relative to control", "format": "functional"}, "[10]": {"tested_on": "HT-29", "experiment": "Cytotoxicity against human HT-29 cells after 48 hrs by SRB assay", "format": "functional", "conditions": "HT-29, 48 h"}, "[11]": {"tested_on": "PC-3", "experiment": "Cytotoxicity against human PC3 cells after 48 hrs by SRB assay", "format": "functional", "conditions": "PC-3, 48 h"}, "[12]": {"tested_on": "HT-29", "experiment": "Cytotoxicity against human HT-29 cells assessed as cellular growth at 1 uM after 48 hrs by SRB assay relative to control", "format": "functional"}, "[13]": {"tested_on": "PC-3", "experiment": "Cytotoxicity against human PC3 cells assessed as cellular growth at 0.1 uM after 48 hrs by SRB assay relative to control", "format": "functional"}, "[14]": {"tested_on": "PC-3", "experiment": "Cytotoxicity against human PC3 cells assessed as cellular growth at 1 uM after 48 hrs by SRB assay relative to control", "format": "functional"}, "[15]": {"tested_on": "HT-29", "experiment": "Cytotoxicity against human HT-29 cells assessed as cellular growth at 0.01 uM after 48 hrs by SRB assay relative to control", "format": "functional"}, "[16]": {"tested_on": "HCC 2998", "experiment": "Cytotoxicity against human HCC2998 cells assessed as cellular growth at 100 uM after 48 hrs by SRB assay relative to control", "format": "functional"}, "[17]": {"tested_on": "CAKI-1", "experiment": "Cytotoxicity against human Caki1 cells assessed as cellular growth at 0.01 uM after 48 hrs by SRB assay relative to control", "format": "functional"}, "[18]": {"tested_on": "MOLT-4", "experiment": "Cytotoxicity against human MOLT4 cells after 48 hrs by SRB assay", "format": "functional", "conditions": "MOLT-4, 48 h"}, "[19]": {"tested_on": "RPMI-8226", "experiment": "Cytotoxicity against human RPMI8226 cells assessed as cellular growth at 0.01 uM after 48 hrs by SRB assay relative to control", "format": "functional"}, "[20]": {"tested_on": "SW-620", "experiment": "Cytotoxicity against human SW620 cells assessed as cellular growth at 1 uM after 48 hrs by SRB assay relative to control", "format": "functional"}, "[21]": {"tested_on": "CAKI-1", "experiment": "Cytotoxicity against human Caki1 cells assessed as cellular growth at 100 uM after 48 hrs by SRB assay relative to control", "format": "functional"}, "[22]": {"tested_on": "MOLT-4", "experiment": "Cytotoxicity against human MOLT4 cells assessed as cellular growth at 100 uM after 48 hrs by SRB assay relative to control", "format": "functional"}, "[23]": {"tested_on": "CAKI-1", "experiment": "Cytotoxicity against human Caki1 cells assessed as cellular growth at 0.1 uM after 48 hrs by SRB assay relative to control", "format": "functional"}, "[24]": {"tested_on": "HCC 2998", "experiment": "Cytotoxicity against human HCC2998 cells assessed as cellular growth at 1 uM after 48 hrs by SRB assay relative to control", "format": "functional"}, "[25]": {"tested_on": "RPMI-8226", "experiment": "Cytotoxicity against human RPMI8226 cells assessed as cellular growth at 1 uM after 48 hrs by SRB assay relative to control", "format": "functional"}, "[26]": {"tested_on": "RPMI-8226", "experiment": "Cytotoxicity against human RPMI8226 cells after 48 hrs by SRB assay", "format": "functional", "conditions": "RPMI-8226, 48 h"}, "[27]": {"tested_on": "CAKI-1", "experiment": "Cytotoxicity against human Caki1 cells after 48 hrs by SRB assay", "format": "functional", "conditions": "CAKI-1, 48 h"}, "[28]": {"tested_on": "HCC 2998", "experiment": "Cytotoxicity against human HCC2998 cells after 48 hrs by SRB assay", "format": "functional", "conditions": "HCC 2998, 48 h"}, "[29]": {"tested_on": "RPMI-8226", "experiment": "Cytotoxicity against human RPMI8226 cells assessed as cellular growth at 0.1 uM after 48 hrs by SRB assay relative to control", "format": "functional"}, "[30]": {"tested_on": "CAKI-1", "experiment": "Cytotoxicity against human Caki1 cells assessed as cellular growth at 1 uM after 48 hrs by SRB assay relative to control", "format": "functional"}, "[31]": {"tested_on": "MOLT-4", "experiment": "Cytotoxicity against human MOLT4 cells assessed as cellular growth at 0.01 uM after 48 hrs by SRB assay relative to control", "format": "functional"}, "[32]": {"tested_on": "HCC 2998", "experiment": "Cytotoxicity against human HCC2998 cells assessed as cellular growth at 0.01 uM after 48 hrs by SRB assay relative to control", "format": "functional"}, "[33]": {"conditions": "read-out: LC50 (the source's name)"}, "[34]": {"conditions": "read-out: pLC50 (the source's name) (converted)"}}, "data": [{"compound": "O=C(O)CCCn1c2c(sc3ccccc32)c(=O)n2nnc(-c3ccccc3)c12", "values": [{"measurement": "Activity", "setting": "[1]", "value": 88, "unit": "%"}, {"measurement": "Activity", "setting": "[2]", "value": 90, "unit": "%"}, {"measurement": "Activity", "setting": "[3]", "value": 79, "unit": "%"}, {"measurement": "Activity", "setting": "[4]", "value": 105, "unit": "%"}, {"measurement": "Activity", "setting": "[5]", "value": 92, "unit": "%"}, {"measurement": "Activity", "setting": "[6]", "value": 75, "unit": "%"}]}, {"compound": "O=C(CCCn1c2c(sc3ccccc32)c(=O)n2nnc(-c3ccccc3)c12)NCCc1c[nH]cn1", "values": [{"measurement": "Activity", "setting": "[7]", "value": -51, "unit": "%"}, {"measurement": "Activity", "setting": "[8]", "value": -100, "unit": "%"}, {"measurement": "Activity", "setting": "[9]", "value": 84, "unit": "%"}, {"measurement": "GI50", "setting": "[10]; read-out: GI50", "value": 0.674, "unit": "µM"}, {"measurement": "CC50", "setting": "[10]; [33]", "value": 4.55, "unit": "µM"}, {"measurement": "TGI", "setting": "[10]; read-out: TGI", "value": 2.01, "unit": "µM"}, {"measurement": "GI50", "setting": "[10]; read-out: pGI50 (converted)", "value": 0.676, "unit": "µM"}, {"measurement": "CC50", "setting": "[10]; [34]", "value": 4.57, "unit": "µM"}, {"measurement": "TGI", "setting": "[10]; read-out: pTGI (converted)", "value": 2, "unit": "µM"}, {"measurement": "GI50", "setting": "[11]; read-out: GI50", "value": 0.0603, "unit": "µM"}, {"measurement": "LC50", "setting": "[11]; read-out: LC50", "value": 7.32, "unit": "µM"}, {"measurement": "TGI", "setting": "[11]; read-out: TGI", "value": 2.21, "unit": "µM"}, {"measurement": "GI50", "setting": "[11]; read-out: pGI50 (converted)", "value": 0.0603, "unit": "µM"}, {"measurement": "LC50", "setting": "[11]; read-out: pLC50 (converted)", "value": 7.24, "unit": "µM"}, {"measurement": "TGI", "setting": "[11]; read-out: pTGI (converted)", "value": 2.19, "unit": "µM"}, {"measurement": "Activity", "setting": "[12]", "value": 43, "unit": "%"}, {"measurement": "Activity", "setting": "[13]", "value": 40, "unit": "%"}, {"measurement": "Activity", "setting": "[14]", "value": 33, "unit": "%"}, {"measurement": "Activity", "setting": "[15]", "value": 113, "unit": "%"}]}, {"compound": "CN1CCN(CCCn2c3c(sc4ncccc43)c(=O)n3nnc(-c4ccccc4)c23)CC1", "values": [{"measurement": "Activity", "setting": "[16]", "value": -76, "unit": "%"}, {"measurement": "Activity", "setting": "[17]", "value": 97, "unit": "%"}, {"measurement": "GI50", "setting": "[18]; read-out: GI50", "value": 1.98, "unit": "µM"}, {"measurement": "CC50", "setting": "[18]; [33]", "value": 11.5, "unit": "µM"}, {"measurement": "TGI", "setting": "[18]; read-out: TGI", "value": 4.45, "unit": "µM"}, {"measurement": "GI50", "setting": "[18]; read-out: pGI50 (converted)", "value": 2, "unit": "µM"}, {"measurement": "CC50", "setting": "[18]; [34]", "value": 11.5, "unit": "µM"}, {"measurement": "TGI", "setting": "[18]; read-out: pTGI (converted)", "value": 4.47, "unit": "µM"}, {"measurement": "Activity", "setting": "[19]", "value": 110, "unit": "%"}, {"measurement": "Activity", "setting": "[20]", "value": 83, "unit": "%"}, {"measurement": "Activity", "setting": "[21]", "value": -90, "unit": "%"}, {"measurement": "Activity", "setting": "[22]", "value": -56, "unit": "%"}, {"measurement": "Activity", "setting": "[23]", "value": 86, "unit": "%"}, {"measurement": "Activity", "setting": "[24]", "value": 102, "unit": "%"}, {"measurement": "Activity", "setting": "[25]", "value": 84, "unit": "%"}, {"measurement": "GI50", "setting": "[26]; read-out: GI50", "value": 1.81, "unit": "µM"}, {"measurement": "CC50", "setting": "[26]; [33]", "value": "> 100", "unit": "µM"}, {"measurement": "TGI", "setting": "[26]; read-out: TGI", "value": 4.33, "unit": "µM"}, {"measurement": "GI50", "setting": "[26]; read-out: pGI50 (converted)", "value": 1.82, "unit": "µM"}, {"measurement": "CC50", "setting": "[26]; read-out: pLC50 (converted)", "value": "> 100", "unit": "µM"}, {"measurement": "TGI", "setting": "[26]; read-out: pTGI (converted)", "value": 4.37, "unit": "µM"}, {"measurement": "GI50", "setting": "[27]; read-out: GI50", "value": 1.63, "unit": "µM"}, {"measurement": "CC50", "setting": "[27]; [33]", "value": 6.65, "unit": "µM"}, {"measurement": "TGI", "setting": "[27]; read-out: TGI", "value": 3.29, "unit": "µM"}, {"measurement": "GI50", "setting": "[27]; read-out: pGI50 (converted)", "value": 1.62, "unit": "µM"}, {"measurement": "CC50", "setting": "[27]; [34]", "value": 6.61, "unit": "µM"}, {"measurement": "TGI", "setting": "[27]; read-out: pTGI (converted)", "value": 3.31, "unit": "µM"}, {"measurement": "GI50", "setting": "[28]; read-out: GI50", "value": 1.88, "unit": "µM"}, {"measurement": "CC50", "setting": "[28]; [33]", "value": 6.39, "unit": "µM"}, {"measurement": "TGI", "setting": "[28]; read-out: TGI", "value": 3.47, "unit": "µM"}, {"measurement": "GI50", "setting": "[28]; read-out: pGI50 (converted)", "value": 1.86, "unit": "µM"}, {"measurement": "CC50", "setting": "[28]; [34]", "value": 6.46, "unit": "µM"}, {"measurement": "TGI", "setting": "[28]; read-out: pTGI (converted)", "value": 3.47, "unit": "µM"}, {"measurement": "Activity", "setting": "[29]", "value": 100, "unit": "%"}, {"measurement": "Activity", "setting": "[30]", "value": 85, "unit": "%"}, {"measurement": "Activity", "setting": "[31]", "value": 99, "unit": "%"}, {"measurement": "Activity", "setting": "[32]", "value": 104, "unit": "%"}]}]}
